This is an account of results in patent US5675031A, “4-hydroxy-2-cyclopentenone derivatives and anticancer agent and bone formation accelerator containing the same” (Teijin Limited, priority 1992, dated 1997).

In brackets after ≈: the same amount, converted by molar mass.

In one test the test system is L1210 tumor cells. As to the kind of experiment: anticancer activity (growth of L1210 tumor cells, trypan blue staining of surviving cells). In kind it is cell-based. As to conditions: Mus musculus, 48 h, 2.5×10^4 cells/ml, grown for 2 days. On the procedure: Measurement of anticancer activity
Tumor cells were grown in an RPMI 1640 medium containing of 10% fetal calf serum.
The compound was dissolved in 99.5% ethanol, adjusted before use so that the final concentration of ethanol was 0.1% or less, and added to the medium.
The control was 0.1% ethanol, and L1210 tumor cells were inoculated in the medium in a concentration of 2.5×10^4 cells/ml and grown for 2 days. The number of surviving cells were measured by trypan blue staining.

For test [1], the system named is Human osteoblasts (KK-3, 18PDL). Briefly: bone formation activity (Ca, P and alkaline phosphatase in human osteoblasts). In kind it is cell-based. To be noted: 14 days. As for the experimental part: Measurement of bone formation activity
Human osteoblasts (KK-3, 18PDL) were cultured in an α-MEM containing 10% fetal calf serum. After the growth become stationary, the compound was added in a given concentration in the presence of 2 mM α-glycerophosphate and treated for 14 days. The cell phase was washed with physiological saline, and the alkaline phosphatase activity (ALP) was measured through the absorption of OD415. Then, calcium (Ca) and phosphorus (P) were extracted with a 2N hydrochloric acid and quantitatively determined.

[2] abbreviates: Table 6, 1.0 × 10^-6, control 0.550 ± 0.040.
Setting [3] is: Table 6, 1.0 × 10^-6, control 11.00 ± 1.73.
Setting [4] is: Table 6, 2.5 × 10^-7 M, control 0.550 ± 0.040.
Setting [5] is: Table 6, 2.5 × 10^-7 M, control 11.00 ± 1.73.
[6] abbreviates: Table 6, 2.5 × 10^-7 M, control 20.00 ± 1.73.
[7] abbreviates: Table 9, 1.0 × 10^-6 M, control 1.15 ± 0.19.
The mark [8] stands for this setting: Table 9, 1.0 × 10^-6 M, control 2.17 ± 2.56.
The mark [9] stands for this setting: Table 9, 1.0 × 10^-6 M, control 3.83 ± 1.72.
Setting [10] is: Table 9, 3.3 × 10^-6, control 1.15 ± 0.19.
[11] abbreviates: Table 9, 3.3 × 10^-6, control 2.17 ± 2.56.

For the compound `O=C1C=CC(O)(CCCCOc2ccccc2)/C1=C\c1ccncc1` (stereo not shown), the IC50 in the test on L1210 tumor cells was found to be 0.021 µg/mL (≈ 0.0626 µM).
The same measure, in the same setting: then `CN(C)c1ccc(C=C2C(=O)C=CC2(O)CCCCOc2ccccc2)cc1` (stereo not shown), with 0.378 µg/mL (≈ 1 µM); and `COC(=O)c1ccc(/C=C2/C(=O)C=CC2(O)CCCCOc2ccccc2)cc1` (stereo not shown) [drawing 207], with 0.014 µg/mL (≈ 0.0357 µM).
On to `COC(=O)c1ccc(/C=C2/C(=O)C=C(C)C2(O)CCCCOc2ccccc2)cc1` (stereo not shown) [drawing 208], for which, in the test with L1210 tumor cells, the IC50 is 10.8 µg/mL (≈ 26.5 µM). This IC50 is about 770-fold higher than that of the compound before.
On the same count and under the same terms, then `COC(=O)c1ccc(/C=C2/C(=O)C(Cl)=CC2(O)CCCCOc2ccccc2)cc1` (stereo not shown) [drawing 209], with 0.004 µg/mL (≈ 0.00937 µM); and `CN(C)c1ccc(/C=C2/C(=O)C(Cl)=CC2(O)CCCCOc2ccccc2)cc1` (stereo not shown) [drawing 212], with 0.062 µg/mL (≈ 0.151 µM).
The same measure, in the same setting: then `COC(=O)c1ccc(/C=C2/C(=O)C=C[C@@]2(O)CCCCOc2ccccc2)cc1` [drawing 213], with 0.01 µg/mL (≈ 0.0255 µM).
The same measure, in the same setting: then `COC(=O)c1ccc(/C=C2/C(=O)C=C[C@]2(O)CCCCOc2ccccc2)cc1` [drawing 214], with 0.026 µg/mL (≈ 0.0663 µM).
Regarding `COC(=O)c1ccc(/C=C2/C(=O)C=CC2(O)CCCCOc2ccccc2)cc1` (stereo not shown) [drawing 215], the ALP in test [1] (setting [2]) amounted to 0.488 OD415 /dish; in test [1] (setting [4]), 0.572 ± 0.028 OD415 /dish. The Ca in test [1] (setting [3]) was 47.00 ± 1.00 μg/dish; in test [1] (setting [5]), 22.67 ± 3.51 μg/dish. The compound further gave a P in test [1] (setting [6]) of 28.33 ± 2.52 μg/dish.
On to `COC(=O)c1ccc(/C=C2/C(=O)C(Cl)=CC2(O)CCCCOc2ccccc2)cc1` (stereo not shown) [drawing 216], for which the ALP in test [1] (setting [2]) came to 0.0 OD415 /dish; in test [1] (setting [4]) it was 0.484 ± 0.078 OD415 /dish. Also, the Ca in test [1] (setting [3]) was 124.50 ± 2.12 μg/dish; in test [1] (setting [5]), 37.00 ± 1.00 μg/dish. In test [1] (setting [6]), the P turned out to be 36.00 ± 1.00 μg/dish.
With `CN(C)c1ccc(/C=C2/C(=O)C(Cl)=CC2(O)CCCCOc2ccccc2)cc1` (stereo not shown) [drawing 217], the P in test [1] (Table 7, 10^-6 M, control 0.17 ± 0.29) is given as 1.72 ± 0.05 μg/dish; in test [1] (Table 7, 10^-7 M, control 0.17 ± 0.29), 0.33 ± 0.29 μg/dish. Moreover, the Ca in test [1] (Table 7, 10^-6 M, control 0.33 ± 0.29) is 23.50 ± 3.77 μg/dish; in test [1] (Table 7, 10^-7 M, control 0.33 ± 0.29) it was 0.0 ± 0 μg/dish. In addition, the ALP in test [1] (Table 7, 10^-6 M, control 0.826 ± 0.006) came to 0.503 OD415 /dish; in test [1] (Table 7, 10^-7 M, control 0.826 ± 0.006) it was 0.796 ± 0.047 OD415 /dish.
Turning to `COC(=O)c1ccc(/C=C2/C(=O)C=C(C)C2(O)CCCCOc2ccccc2)cc1` (stereo not shown) [drawing 218], the Ca in test [1] (Table 8, 10^-4 M, control 0.33 ± 0.58) is 8.133 ± 3.06 μg/dish; in test [1] (Table 8, 10^-5 M, control 0.33 ± 0.58) it was 1.00 ± 0.0 μg/dish. The ALP in test [1] (Table 8, 10^-4 M, control 1.684 ± 0.068) came out at 0.697 OD415 /dish; in test [1] (Table 8, 10^-5 M, control 1.684 ± 0.068) it was 1.538 ± 0.028 OD415 /dish. The P was determined as 50.33 ± 1.53 μg/dish in test [1] (Table 8, 10^-4 M, control 7.67 ± 0.58) and 8.33 ± 1.53 μg/dish in test [1] (Table 8, 10^-5 M, control 7.67 ± 0.58).
As for `COC(=O)c1ccc(/C=C2/C(=O)C=C[C@]2(O)CCCCOc2ccccc2)cc1` [drawing 219], the figures for the ALP in test [1] (setting [7]) and in test [1] (setting [10]) were 0.74 ± 0.06 OD415 /dish and 1.79 OD415 /dish, respectively. In addition, the Ca is reported as 18.00 ± 8.00 μg/dish in test [1] (setting [8]) and 318.50 ± 12.50 μg/dish in test [1] (setting [11]). In test [1] (setting [9]), this compound returned a P of 13.00 ± 4.69 μg/dish.
On to `COC(=O)c1ccc(/C=C2/C(=O)C=C[C@@]2(O)CCCCOc2ccccc2)cc1` [drawing 220], for which the ALP is reported as 0.04 ± 0.01 OD415 /dish in test [1] (setting [7]) and 0.03 OD415 /dish in test [1] (setting [10]). The figures for the Ca in test [1] (setting [8]) and in test [1] (setting [11]) were 312.17 ± 12.30 μg/dish and 328.00 ± 15.90 μg/dish, respectively. This compound also gave a P in test [1] (setting [9]) of 170.33 ± 11.60 μg/dish.

Usually IC50 stands for the concentration at which inhibition is half-maximal. The low end stands for greater potency in that assay, the high end for weaker potency in that assay.
